Laboratory results as given in ChEMBL document CHEMBL5625182, “Synthesis and antibacterial activities of baulamycin A inspired derivatives” (Eur J Med Chem, 2023).
pIC50: −log10 of the molar value. ≈ marks a conversion by molar mass, not a printed value.

How the values were obtained:
Staphylococcus aureus [1] = assay: Antibacterial activity against […] Staphylococcus aureus ATCC25923 assessed as inhibition in bacterial growth incubated for 18 hrs by microdilution method; format: functional
Staphylococcus aureus [2] = assay: Antibacterial activity against methicillin resistant Staphylococcus aureus CCARM3167 assessed as inhibition in bacterial growth incubated for 18 hrs by microdilution method; format: functional
[3] = biological target: T1, L-2,3-diaminopropanoate--citrate ligase (Staphylococcus aureus (strain NCTC 8325 / PS 47)) (UniProt Q2G1M9); assay: Inhibition of Staphylococcus aureus SbnE at 50 uM incubated for 1 hr by malachite green staining based microplate reader analysis relative to control
T1 sequence (whole entry): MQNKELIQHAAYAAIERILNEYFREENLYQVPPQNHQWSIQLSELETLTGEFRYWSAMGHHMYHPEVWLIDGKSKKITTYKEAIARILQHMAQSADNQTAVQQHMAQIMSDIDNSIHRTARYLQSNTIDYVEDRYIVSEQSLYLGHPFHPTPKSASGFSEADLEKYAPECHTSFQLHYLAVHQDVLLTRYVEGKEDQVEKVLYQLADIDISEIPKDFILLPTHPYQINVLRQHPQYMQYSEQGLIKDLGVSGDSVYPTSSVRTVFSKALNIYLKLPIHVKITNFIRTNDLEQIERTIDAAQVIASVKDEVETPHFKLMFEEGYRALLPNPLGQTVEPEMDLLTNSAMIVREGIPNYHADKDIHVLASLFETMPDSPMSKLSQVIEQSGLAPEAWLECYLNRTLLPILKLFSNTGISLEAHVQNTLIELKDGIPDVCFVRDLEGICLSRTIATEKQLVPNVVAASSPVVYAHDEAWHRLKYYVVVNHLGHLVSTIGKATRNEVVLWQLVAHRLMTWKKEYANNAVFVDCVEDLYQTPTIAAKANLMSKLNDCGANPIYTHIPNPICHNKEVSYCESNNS

[4] = biological target: T2, L-2,3-diaminopropanoate--citrate ligase (Staphylococcus aureus (strain NCTC 8325 / PS 47), UniProt Q2G1M9); assay: Inhibition of Staphylococcus aureus SbnE incubated for 1 hr by malachite green staining based microplate reader analysis
T2 sequence (Q2G1M9 whole entry): T1 sequence (whole entry)

Escherichia coli = assay: Antibacterial activity against Escherichia coli MC1061 assessed as inhibition of bacterial growth incubated for 18 hrs by microdilution method; format: functional
Bacillus cereus = assay: Antibacterial activity against Bacillus cereus ATCC27348 assessed as inhibition of bacterial growth incubated for 18 hrs by microdilution method; format: functional
Staphylococcus aureus [5] = assay: Antibacterial activity against quinolone-resistant Staphylococcus aureus CCARM3505 assessed as inhibition of bacterial growth incubated for 18 hrs by microdilution method; format: functional
[6] = Antibacterial activity against Bacillus subtilis ATCC6633 assessed as inhibition of bacterial growth incubated for 18 hrs by microdilution method; format: functional, Bacillus subtilis […]
Salmonella typhimurium = assay: Antibacterial activity against Salmonella typhimurium ATCC14028 assessed as inhibition of bacterial growth incubated for 18 hrs by microdilution method; format: functional, Salmonella enterica subsp. enterica serovar Typhimurium; conditions: Salmonella enterica

SMILES	MIC (Staphylococcus aureus [1]) [µg/mL]	MIC (Staphylococcus aureus [2]) [µg/mL]	inhibition [3] [%]	pIC50 [4]	MIC (Escherichia coli) [µg/mL]	MIC (Bacillus cereus) [µg/mL]	MIC (Staphylococcus aureus [5]) [µg/mL]	MIC [6] [µg/mL]	MIC (Salmonella typhimurium) [µg/mL]
CC(C)C[C@@H]([C@H](O)C[C@H](O)CC[C@@H](C)C[C@H](C)C[C@@H](C)CO)[C@@H](O)c1cc(O)cc(O)c1	> 256	> 256	31.1						
CC(C)C[C@H]([C@H](O)CC(O)C#C[C@@H](C)C[C@@H](C)C[C@@H](C)CO)[C@@H](O)c1cc(O)cc(O)c1 (stereo partly drawn)	64 (≈ 142 µM)	64 (≈ 142 µM)	74.7	5.17					
Cc1ccc([N+](=O)[O-])cc1NCC[C@@H](O)[C@@H](CC(C)C)[C@@H](O)c1cc(O)cc(O)c1	32 (≈ 76.5 µM)	64 (≈ 153 µM)	32						
CC(C)C[C@H]([C@H](O)CCNc1ccccc1O)[C@@H](O)c1cc(O)cc(O)c1	64 (≈ 170 µM)	64 (≈ 170 µM)	4.87						
C=CC[C@@H](O)[C@H](CC(C)C)[C@@H](O)c1cc(O)cc(O)c1	> 256	> 256	39.5						
C[C@@H](COCc1ccccc1)C[C@H](C)C[C@H](C)C#CC(O)CC(O)C[C@@H](O)c1cc(O)cc(O)c1 (single isomer, unassigned)	64 (≈ 132 µM)	64 (≈ 132 µM)	33.6						
C=CC[C@@H](O)[C@@H](CC(C)C)[C@@H](O)c1cc(O)cc(O)c1	> 256	> 256	96.8	5.09					
CC(C)C[C@H]([C@H](O)CCNc1ccccc1)[C@@H](O)c1cc(O)cc(O)c1	4 (≈ 11.1 µM)	8 (≈ 22.3 µM)	75.1	4.74					
CC(C)C[C@@H]([C@H](O)CCNCc1ccccc1)[C@@H](O)c1cc(O)cc(O)c1	> 256	> 256	5.63						
C[C@@H](CO)C[C@H](C)C[C@H](C)C#CC(O)CC(O)C[C@@H](O)c1cc(O)cc(O)c1 (single isomer, unassigned)	128 (≈ 324 µM)	128 (≈ 324 µM)	6.92						
CC(C)C[C@@H]([C@H](O)C[C@H](O)CCCCCCCCO)[C@@H](O)c1cc(O)cc(O)c1	> 256	> 256	38.4						
CCC[C@@H](O)[C@@H](CC(C)C)[C@@H](O)c1cc(O)cc(O)c1	> 256	> 256	25.6						
CC(C)C[C@@H]([C@@H](O)C[C@H](O)CC[C@@H](C)C[C@H](C)C[C@@H](C)CO)[C@@H](O)c1cc(O)cc(O)c1	> 256	> 256	59.1	4.54					
Cc1ccc(NCC[C@H](O)[C@@H](CC(C)C)[C@@H](O)c2cc(O)cc(O)c2)c(Cl)c1	64 (≈ 157 µM)	64 (≈ 157 µM)	54.8	4.72					
CC(C)C[C@H]([C@H](O)CCNc1ccn(C)n1)[C@@H](O)c1cc(O)cc(O)c1	128 (≈ 352 µM)	128 (≈ 352 µM)	48.2						
CC(C)C[C@@H]([C@H](O)CCCCCCCCCCO)[C@@H](O)c1cc(O)cc(O)c1	> 256	> 256	19.8						
Cc1onc(-c2ccccc2)c1C(=O)N[C@@H]1C(=O)N2[C@@H]1SC(C)(C)[C@@H]2C(=O)O [OXACILLIN]	0.25 (≈ 0.623 µM)	> 256	10.2		64 (≈ 159 µM)	32 (≈ 79.7 µM)	> 256	8 (≈ 19.9 µM)	64 (≈ 159 µM)

SMILES	MIC (Staphylococcus aureus [1]) [µg/mL]	MIC (Staphylococcus aureus [2]) [µg/mL]	inhibition [3] [%]	pIC50 [4]	MIC (Escherichia coli) [µg/mL]	MIC (Bacillus cereus) [µg/mL]	MIC (Staphylococcus aureus [5]) [µg/mL]	MIC [6] [µg/mL]	MIC (Salmonella typhimurium) [µg/mL]
CC(C)C[C@H]([C@H](O)CCNc1ccc(O)cc1)[C@@H](O)c1cc(O)cc(O)c1	64 (≈ 170 µM)	> 256	8.18						
CC(C)C[C@H]([C@H](O)CCNc1cc(Cl)c(F)cc1[N+](=O)[O-])[C@@H](O)c1cc(O)cc(O)c1	128 (≈ 280 µM)	256 (≈ 560 µM)	6.49						
CCN(CC[C@@H](O)[C@@H](CC(C)C)[C@@H](O)c1cc(O)cc(O)c1)Cc1ccccc1	16 (≈ 39.8 µM)	16 (≈ 39.8 µM)	5.19						
CC(C)C[C@H]([C@H](O)CCNc1ccccn1)[C@@H](O)c1cc(O)cc(O)c1	> 256	> 256	36.4						
CC(C)C[C@H]([C@H](O)CCNc1c(Cl)cccc1Cl)[C@@H](O)c1cc(O)cc(O)c1	256 (≈ 598 µM)	128 (≈ 299 µM)	26.8						
CC(C)C[C@@H]([C@H](O)CCCC[C@@H](C)C[C@H](C)C[C@@H](C)CO)[C@@H](O)c1cc(O)cc(O)c1	> 256	> 256	79.4	4.98					
CC(C)C[C@H]([C@H](O)CCNCc1cccc([N+](=O)[O-])c1)[C@@H](O)c1cc(O)cc(O)c1	> 256	> 256	50.8	4.03					
CCC(O)[C@H](C)C[C@H](C)C[C@H](C)CC[C@@H](O)C[C@@H](O)[C@@H](CC(C)C)[C@@H](O)c1cc(O)cc(O)c1 (stereo partly drawn)	32 (≈ 66.3 µM)	32 (≈ 66.3 µM)	58.7	4.77					
CCn1cc(C(=O)O)c(=O)c2cc(F)c(N3CCNCC3)cc21 [NORFLOXACIN]	> 256	4 (≈ 12.5 µM)	16.8		2 (≈ 6.26 µM)	2 (≈ 6.26 µM)	> 256	4 (≈ 12.5 µM)	2 (≈ 6.26 µM)
CCC(=O)[C@@H](C)C[C@@H](C)C[C@@H](C)CCCC[C@@H](O)[C@@H](CC(C)C)[C@@H](O)c1cc(O)cc(O)c1	8 (≈ 17.2 µM)	4 (≈ 8.61 µM)	81.5	4.78					
CC(C)C[C@@H]([C@H](O)C[C@H](O)C#CCCCCCCOCc1ccccc1)[C@@H](O)c1cc(O)cc(O)c1	128 (≈ 257 µM)	128 (≈ 257 µM)	97.1	5.15					
CC(C)C[C@@H]([C@H](O)C[C@H](O)C#C[C@@H](C)C[C@H](C)C[C@@H](C)COCc1ccccc1)[C@@H](O)c1cc(O)cc(O)c1	64 (≈ 118 µM)	64 (≈ 118 µM)	76.8	4.93					
CC(C)C[C@H]([C@H](O)CCO)[C@@H](O)c1cc(O)cc(O)c1	> 256	> 256	28.3						
CC(C)C[C@H]([C@H](O)CCNCc1ccco1)[C@@H](O)c1cc(O)cc(O)c1	> 256	> 256	34.5						
CC(C)C[C@H]([C@H](O)CCNc1cccc([N+](=O)[O-])c1)[C@@H](O)c1cc(O)cc(O)c1	64 (≈ 158 µM)	256 (≈ 633 µM)	5.19						
CC(C)C[C@H]([C@H](O)CCNc1ccc(Cl)cc1Cl)[C@@H](O)c1cc(O)cc(O)c1	8 (≈ 18.7 µM)	4 (≈ 9.34 µM)	41.8						
C[C@@H](COCc1ccccc1)C[C@H](C)C[C@H](C)C#CC(O)c1cc(O)cc(O)c1 (stereo partly drawn)	2 (≈ 5.04 µM)	4 (≈ 10.1 µM)	34.8						
